Measurements reported in PubChem BioAssay AID1033 (Sanford-Burnham Center for Chemical Genomics, 2008).
Calls of active or inactive are those of the source. The rule behind the calls is not given here.

Molecular target: Chaperone protein DnaK (Escherichia coli (strain K12)) (UniProt P0A6Y8)
Experiment: E. coli DnaK SBD ligand binding – biophysical, NMR, chaperone (AID 1033)
Conditions: Purified DnaK SBD

Sequence of Chaperone protein DnaK (Escherichia coli (strain K12)) (P0A6Y8 whole entry, looked up): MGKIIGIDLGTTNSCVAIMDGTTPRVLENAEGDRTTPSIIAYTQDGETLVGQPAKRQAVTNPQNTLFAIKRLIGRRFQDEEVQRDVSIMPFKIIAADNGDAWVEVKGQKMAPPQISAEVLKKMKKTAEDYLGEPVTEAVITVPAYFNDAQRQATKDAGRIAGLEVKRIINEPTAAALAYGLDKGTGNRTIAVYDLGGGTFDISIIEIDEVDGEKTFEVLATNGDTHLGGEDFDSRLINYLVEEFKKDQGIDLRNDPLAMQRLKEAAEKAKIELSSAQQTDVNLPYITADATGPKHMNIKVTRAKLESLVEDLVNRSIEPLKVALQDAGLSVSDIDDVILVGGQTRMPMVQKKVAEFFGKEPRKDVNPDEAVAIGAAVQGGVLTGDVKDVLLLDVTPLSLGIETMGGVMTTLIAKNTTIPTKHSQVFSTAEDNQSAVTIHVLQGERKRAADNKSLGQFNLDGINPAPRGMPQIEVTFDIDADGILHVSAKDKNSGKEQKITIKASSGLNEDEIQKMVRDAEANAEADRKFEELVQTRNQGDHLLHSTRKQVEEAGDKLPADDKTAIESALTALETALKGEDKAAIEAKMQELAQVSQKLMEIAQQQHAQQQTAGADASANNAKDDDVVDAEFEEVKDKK

SMILES	Kd
O=C(O)CCCC(=O)Nc1nccs1	> 4 mM (inactive)
c1cncc(Nc2nc(-c3cccnc3)cs2)c1	> 4 mM (inactive)
CC(=O)Nc1ccc(C(=O)NC2CCSC2=O)cc1 (centres undefined)	> 4 mM (inactive)
O=C(O)c1cc2ccccc2s1	> 4 mM (inactive)
COc1ccc(-c2cc(=O)c3c(O)cc(O)c(-c4cc(-c5cc(=O)c6c(O)cc(O)cc6o5)ccc4OC)c3o2)cc1	> 4 mM (inactive)
CC1CCN(C(=O)c2ccc(NS(C)(=O)=O)cc2)CC1	> 4 mM (inactive)
O=C1COc2ccc(C(=O)c3ccccc3)cc2CN1	> 4 mM (inactive)
O=C(O)c1cc(O)c(O)c(O)c1	> 4 mM (inactive)
COC(=O)c1ccccc1N(C)S(C)(=O)=O	> 4 mM (inactive)
COc1ccc(NC(=O)/C=N/O)cc1	> 4 mM (inactive)
CC(=O)Oc1ccccc1N1C(=O)C=CC1=O	> 4 mM (inactive)
CCNC(CC(=O)Nc1ccc(F)cc1)C(=O)O (centres undefined)	> 4 mM (inactive)
Cc1csc(NC(=O)c2cccs2)n1	> 4 mM (inactive)
COC(=O)c1cc(-c2c(C)nn(-c3ccccc3)c2C)n[nH]1	> 4 mM (inactive)
O=C(CSc1cccc2cccnc12)N1CCCC1	> 4 mM (inactive)
CN(C)C(=S)Nc1nc2ccccc2s1	> 4 mM (inactive)
COc1ccc(-c2cc(=O)c3ccccc3o2)cc1	> 4 mM (inactive)
CN(C)c1ccc(/C=C2/NC(=S)NC2=O)cc1	> 4 mM (inactive)
CCCCn1c(=O)cc(O)c2ccccc21	> 4 mM (inactive)
Cc1nc2ccc(NC(=O)N3CCOCC3)cc2s1	> 4 mM (inactive)

SMILES	Kd
CNC(=O)c1ccc([N+](=O)[O-])cc1Cl	> 4 mM (inactive)
O=C(CNC(=O)c1ccc(F)cc1)NC1=NCCS1	> 4 mM (inactive)
O=C1O[C@H](C(O)CO)C(O)=C1O (some centres undefined)	> 4 mM (inactive)
O=C(Cc1cccs1)Nc1ccccn1	> 4 mM (inactive)
O=C(O)c1c[nH]c2ccccc12	> 4 mM (inactive)
NC1C2CC3CC1CC(O)(C3)C2 (centres undefined)	> 4 mM (inactive)
COc1ccccc1NC(=O)/C=N/O	> 4 mM (inactive)
O=C(O)c1csc(-c2ccccc2)n1	> 4 mM (inactive)
NC1CSCC1O (centres undefined)	> 4 mM (inactive)
CC(C)=NNC(=O)C(=O)Nc1ccc(F)cc1	> 4 mM (inactive)
OC[C@H]1O[C@@H](n2cnc3c(NCc4ccco4)ncnc32)[C@H](O)[C@@H]1O	> 4 mM (inactive)
O=C(O)c1cn(-c2ccccc2)nc1-c1ccncc1	> 4 mM (inactive)
CC(=O)Nc1cccc(-c2n[nH]c(=S)n2C)c1	> 4 mM (inactive)
NC(=O)CCS(=O)(=O)CCN1CCOCC1	> 4 mM (inactive)
CC(CCC(=O)O)[C@H]1CCC2C3C(C[C@H](O)[C@@]21C)[C@@]1(C)CC[C@@H](O)C[C@H]1C[C@H]3O (some centres undefined)	> 4 mM (inactive)
S=c1[nH]nc(-c2cccnc2)n1C1CCCCC1	> 4 mM (inactive)
Cc1cc(O)cc(=O)n1CCCC(=O)O	> 4 mM (inactive)
O[C@H]1C=C2CCN3Cc4cc5c(cc4C(C23)[C@@H]1O)OCO5 (some centres undefined)	> 4 mM (inactive)
CCCCCCCCCCCCCc1ccco1	> 4 mM (inactive)
NC(=S)NC(=O)CN1C(=O)c2ccccc2C1=O	> 4 mM (inactive)

SMILES	Kd
Cc1cc(NC(=O)CS(=O)(=O)c2ccccc2)no1	> 4 mM (inactive)
N/N=C/c1cccnc1	> 4 mM (inactive)
CC(=O)O[C@H]1C[C@@H](OC(C)=O)C(C)(C)C2C[C@@H](OC(C)=O)[C@@]3(C)C4=CC(=O)O[C@@H](c5ccoc5)[C@]4(C)CCC3[C@]21C (some centres undefined)	> 4 mM (inactive)
O=C(Nc1cccnc1)N1CCOCC1	> 4 mM (inactive)
Cc1cccc(-n2c(N)cc(=O)[nH]c2=S)c1	> 4 mM (inactive)
c1ccc(-n2ncc3c(NCc4ccco4)ncnc32)cc1	> 4 mM (inactive)
CC(=O)/C=C\[C@@H]1[C@@]2(C)CCCC(C)(C)C2CC[C@@]1(C)O (some centres undefined)	> 4 mM (inactive)
O=c1[nH]c(O)c(C=NC2CC2)c(=O)[nH]1	> 4 mM (inactive)
COc1cc(OC)cc(-c2nc(N)n[nH]2)c1	> 4 mM (inactive)
CN1C(=O)/C(=C/c2ccccc2O)NC1=S	> 4 mM (inactive)
COc1ccc(-c2coc3c(O)c(OC)ccc3c2=O)cc1	> 4 mM (inactive)
CCNC(CC(=O)Nc1ccc(O)cc1)C(=O)O (centres undefined)	> 4 mM (inactive)
CN1CCN(c2ccc(C(=O)O)cc2)CC1	> 4 mM (inactive)
COc1cc([C@@H]2c3cc4c(cc3[C@H](OC(C)=O)[C@H]3COC(=O)[C@@H]23)OCO4)cc(OC)c1OC	> 4 mM (inactive)
CC(C)c1c(O)ccc2c1CCC1C(C)(C)CCC[C@]21C (some centres undefined)	> 4 mM (inactive)
Cc1occc1C(=O)NCc1ccncc1	> 4 mM (inactive)
O=C(O)C1COc2ccccc2O1 (centres undefined)	> 4 mM (inactive)
O=C(NCc1ccccc1)c1ccc[n+]([O-])c1	> 4 mM (inactive)
CC[C@@]1(O)C(=O)OCc2c1cc1n(c2=O)Cc2cc3ccccc3nc2-1	> 4 mM (inactive)
